Results on 19 compounds are retold here after ChEMBL document CHEMBL4417631, “Oral peptide inhibitors of interleukin-23 receptor and their use to treat inflammatory bowel diseases” (2017).

*1 amine or outer side, *2 acyl side, *3 side chain or, on linkers, in order; H or OH if unused. Where a SMILES comes first, the peptide text is derived from it. Bridges are numbered along the chain shown (N, C = ends). [ ]: non-standard residue; d: D form. Abu(4-yl) = O=C([C@H](CC[*:3])N[*:1])[*:2]; AEF = NCCOc1ccc(C[C@H](N)C(=O)O)cc1; Tic = O=C(O)[C@@H]1Cc2ccccc2CN1; hLeu = CC(C)CC[C@H](N)C(=O)O; αMeK = C[C@](N)(CCCCN)C(=O)O; Dap = NC[C@H](N)C(=O)O

This experiment has as its target T1, Interleukin-23 receptor (Homo sapiens, UniProt Q5VWK5).
T1 sequence (Q5VWK5 whole entry): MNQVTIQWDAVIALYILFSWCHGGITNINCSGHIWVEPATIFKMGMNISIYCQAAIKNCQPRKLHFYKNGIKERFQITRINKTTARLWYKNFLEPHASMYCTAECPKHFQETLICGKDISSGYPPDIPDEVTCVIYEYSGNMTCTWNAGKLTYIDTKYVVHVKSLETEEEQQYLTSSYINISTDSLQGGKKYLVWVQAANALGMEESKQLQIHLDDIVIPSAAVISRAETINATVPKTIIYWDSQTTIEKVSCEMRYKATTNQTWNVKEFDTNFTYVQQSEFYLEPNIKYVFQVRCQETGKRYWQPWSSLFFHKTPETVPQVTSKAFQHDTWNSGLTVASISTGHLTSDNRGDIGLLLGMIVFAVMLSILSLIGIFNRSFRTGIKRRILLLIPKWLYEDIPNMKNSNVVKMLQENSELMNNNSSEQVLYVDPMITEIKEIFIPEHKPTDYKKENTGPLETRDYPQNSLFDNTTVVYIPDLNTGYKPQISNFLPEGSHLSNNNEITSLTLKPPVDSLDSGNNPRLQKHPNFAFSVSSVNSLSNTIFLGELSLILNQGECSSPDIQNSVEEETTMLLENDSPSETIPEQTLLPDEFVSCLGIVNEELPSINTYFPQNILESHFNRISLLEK
Kind of experiment: Inhibition of interleukin-23 binding to human interleukin-23 receptor incubated for 2 hrs by competitive binding ELISA. (In an ELISA, binding on a coated surface is turned into a signal by an enzyme label.)
For the compound `CC(=O)N[C@@H](CCCNC(=N)N)C(=O)N[C@@H](CCC(=O)O)C(=O)NCC(=O)N[C@H](C(=O)N[C@@H](CS)C(=O)N[C@@H](CO)C(=O)N[C@H](C(=O)N[C@@H](Cc1c[nH]c2ccccc12)C(=O)N[C@@H](CCCCN)C(=O)N[C@@H](CS)C(=O)N[C@@H](Cc1ccc(O)cc1)C(=O)N[C@@H](Cc1c[nH]c2ccccc12)C(=O)N[C@@H](Cc1cnc[nH]1)C(=O)N[C@H](C(=O)N[C@@H](Cc1ccccc1)C(=O)NCC(N)=O)[C@@H](C)O)[C@@H](C)O)[C@@H](C)O` (Ac-REGTCSTWKCYWHTFG-NH2), the IC50 fell in the range of 500 to 1000 nM. Then `CC(=O)N[C@@H](CS)C(=O)N[C@@H](C)C(=O)N[C@@H](CC(=O)O)C(=O)N[C@@H](Cc1c[nH]c2ccccc12)C(=O)N[C@H](C(=O)N[C@@H](CS)C(=O)N[C@@H](Cc1ccc(O)cc1)C(=O)N[C@@H](Cc1c[nH]c2ccccc12)C(=O)N[C@@H](Cc1cnc[nH]1)C(=O)N[C@H](C(=O)N[C@@H](Cc1ccccc1)C(=O)NCC(=O)NCCC(=O)N[C@H](CCCCN)C(=O)O)[C@@H](C)O)C(C)C`, with < 500 nM; and `CC(=O)N[C@@H](CS)C(=O)N[C@@H](C)C(=O)N[C@@H](CC(=O)O)C(=O)N[C@@H](Cc1c[nH]c2ccccc12)C(=O)N[C@H](C(=O)N[C@@H](CS)C(=O)N[C@@H](Cc1ccc(O)cc1)C(=O)N[C@@H](Cc1cccc2ccccc12)C(=O)N[C@H](C)C(=O)N[C@H](C(=O)N[C@@H](Cc1ccccc1)C(=O)NCC(N)=O)[C@@H](C)O)C(C)C`, with > 1000 nM; and `CC(=O)N[C@@H](CS)C(=O)N[C@@H](C)C(=O)N[C@@H](CC(=O)O)C(=O)N[C@@H](Cc1c[nH]c2ccccc12)C(=O)N[C@H](C(=O)N[C@@H](CS)C(=O)N[C@@H](Cc1ccc(O)cc1)C(=O)N[C@@H](Cc1cccc2ccccc12)C(=O)N[C@@H](Cc1cnc[nH]1)C(=O)NCCC(=O)N[C@@H](Cc1ccccc1)C(=O)NCC(N)=O)C(C)C`, with > 1000 nM. Consider `CC(=O)NCCCC[C@H](NC(=O)[C@](C)(CCCCN)NC(=O)[C@H](Cc1ccc2ccccc2c1)NC(=O)[C@@H](NC(=O)[C@H](CCC(N)=O)NC(=O)[C@H](Cc1c[nH]c2ccccc12)NC(=O)[C@@H](NC(=O)[C@H](CCC(N)=O)NC(=O)[C@@H](NC(C)=O)C(C)(C)S)[C@@H](C)O)C(C)(C)S)C(=O)N[C@@H](CC(N)=O)C(=O)NCC(N)=O`, for which the IC50 is > 10000 nM. With `CC(=O)N[C@H]1CCSC[C@@H](C(=O)N[C@@H](Cc2ccc(OCCN)cc2)C(=O)N[C@@H](Cc2ccc3ccccc3c2)C(=O)N[C@@](C)(CCCCN)C(=O)N[C@@H](CCC(=O)O)C(=O)N[C@@H](CC(N)=O)C(=O)NCC(N)=O)NC(=O)[C@H](CCC(N)=O)NC(=O)[C@H](c2ccc(Cl)c(Cl)c2)NC(=O)[C@H]([C@@H](C)O)NC(=O)[C@H](CCC(N)=O)NC1=O`, the IC50 is > 3000 nM. `CC(=O)N[C@@H](CS)C(=O)N[C@@H](CCC(N)=O)C(=O)N[C@H](C(=O)N[C@@H](Cc1c[nH]c2ccccc12)C(=O)N[C@@H](CCC(N)=O)C(=O)N[C@@H](CS)C(=O)N[C@@H](Cc1ccc(O)cc1)C(=O)N[C@@](C)(Cc1c[nH]c2ccccc12)C(=O)N[C@@H](CCCNC(=N)N)C(=O)N[C@H](C(=O)N[C@@H](CC(N)=O)C(=O)NCC(=O)NCCC(=O)N[C@H](CCCCN)C(N)=O)C(C)C)[C@@H](C)O`: the IC50 was found to be 6000 nM. Then `CC(=O)N[C@@H](CS)C(=O)N[C@@H](C)C(=O)N[C@@H](CC(=O)O)C(=O)N[C@@H](Cc1c[nH]c2ccccc12)C(=O)N[C@H](C(=O)N[C@@H](CS)C(=O)N[C@@H](Cc1ccc(O)cc1)C(=O)N[C@@H](Cc1c[nH]c2ccccc12)C(=O)N[C@@H](Cc1cnc[nH]1)C(=O)N[C@H](C(=O)N[C@@H](Cc1ccc(O)cc1)C(=O)NCC(N)=O)[C@@H](C)O)C(C)C`, with < 500 nM; and `CC(=O)N[C@@H](CS)C(=O)N[C@@H](CCC(N)=O)C(=O)N[C@H](C(=O)N[C@@H](CCC(=O)O)C(=O)N[C@@H](CCC(N)=O)C(=O)N[C@@H](CS)C(=O)N[C@@H](Cc1ccc(O)cc1)C(=O)N[C@@H](Cc1c[nH]c2ccccc12)C(=O)N[C@@H](CCC(C)C)C(=O)N[C@@H](CCC(=O)O)C(=O)N[C@@H](CC(N)=O)C(=O)NCC(N)=O)[C@@H](C)O` (Ac-CQTEQCYW[hLeu]ENG-NH2), with > 10000 nM; and `CC(=O)NCCCC[C@H](NC(=O)[C@](C)(CCCCN)NC(=O)[C@@H]1Cc2ccccc2CN1C(=O)[C@H](Cc1ccc(OCCN)cc1)NC(=O)[C@@H]1CSCC[C@H](NC(C)=O)C(=O)N[C@@H](CN)C(=O)N[C@@H]([C@@H](C)O)C(=O)N[C@@H](Cc2c[nH]c3ccccc23)C(=O)N[C@@H](CCC(N)=O)C(=O)N1)C(=O)N[C@@H](CC(N)=O)C(=O)NCC(N)=O` (Ac-[Abu(4-yl)][Dap]TWQC[AEF][Tic][αMeK]K(Ac)NG-NH2; thioether 1-6), with > 3000 nM. Take `CC(=O)N[C@@H](CS)C(=O)N[C@@H](CCCNC(=N)N)C(=O)N[C@@H](CC(=O)O)C(=O)N[C@@H](Cc1c[nH]c2ccccc12)C(=O)N[C@H](C(=O)N[C@@H](CS)C(=O)N[C@@H](Cc1ccc(O)cc1)C(=O)N[C@@H](Cc1c[nH]c2ccccc12)C(=O)N[C@@H](Cc1cnc[nH]1)C(=O)N[C@H](C(=O)N[C@@H](Cc1ccccc1)C(=O)NCC(N)=O)[C@@H](C)O)C(C)C`: the IC50 was in the range of 500 to 1000 nM.

For `COc1ccc(C[C@H](NC(=O)[C@@H](NC(=O)[C@H](CCC(N)=O)NC(=O)[C@H](Cc2c[nH]c3ccccc23)NC(=O)[C@@H](NC(=O)[C@H](CCC(N)=O)NC(=O)[C@@H](NC(C)=O)C(C)(C)S)[C@@H](C)O)C(C)(C)S)C(=O)N[C@@H](Cc2ccc3ccccc3c2)C(=O)N[C@@](C)(CCCCN)C(=O)N[C@@H](CCCCNC(CC(C)C)=C2C(=O)CC(C)(C)CC2=O)C(=O)N[C@@H](CC(N)=O)C(=O)NCC(N)=O)cc1`, the IC50 fell in the range of 100 to 1000 nM. For `CC(=O)N[C@@H](CS)C(=O)N[C@@H](C)C(=O)N[C@@H](CC(=O)O)C(=O)N[C@@H](Cc1c[nH]c2ccccc12)C(=O)N[C@H](C(=O)N[C@@H](CS)C(=O)N[C@@H](Cc1ccc(O)cc1)C(=O)N[C@@H](Cc1c[nH]c2ccccc12)C(=O)N[C@@H](Cc1cnc[nH]1)C(=O)N[C@H](C(=O)N[C@@H](Cc1ccccc1)C(=O)NCC(=O)NCCOCCC(=O)N[C@@H](CCCCN)C(=O)O)[C@@H](C)O)C(C)C`, the IC50 is < 500 nM. `CC(C)[C@H](NC(=O)[C@H](Cc1c[nH]c2ccccc12)NC(=O)[C@H](CC(=O)O)NC(=O)[C@H](C)NC(=O)[C@@H](N)CS)C(=O)N[C@@H](CS)C(=O)N[C@@H](Cc1ccc(O)cc1)C(=O)N[C@@H](Cc1c[nH]c2ccccc12)C(=O)N[C@@H](Cc1cnc[nH]1)C(=O)N[C@H](C(=O)N[C@@H](Cc1ccccc1)C(=O)NCC(=O)N[C@@H](CCCCNC(=O)COCC(=O)NCCCC[C@H](NC(=O)CNC(=O)[C@H](Cc1ccccc1)NC(=O)[C@@H](NC(=O)[C@H](Cc1cnc[nH]1)NC(=O)[C@H](Cc1c[nH]c2ccccc12)NC(=O)[C@H](Cc1ccc(O)cc1)NC(=O)[C@H](CS)NC(=O)[C@@H](NC(=O)[C@H](Cc1c[nH]c2ccccc12)NC(=O)[C@H](CC(=O)O)NC(=O)[C@H](C)NC(=O)[C@@H](N)CS)C(C)C)[C@@H](C)O)C(=O)O)C(=O)O)[C@@H](C)O` gave an IC50 of 1000 to 10000 nM. Then `CC(=O)N[C@@H](CS)C(=O)N[C@@H](CCCCN)C(=O)N[C@@H](CC(=O)O)C(=O)N[C@@H](Cc1c[nH]c2ccccc12)C(=O)N[C@H](C(=O)N[C@@H](CS)C(=O)N[C@@H](Cc1ccc(O)cc1)C(=O)N[C@@H](Cc1c[nH]c2ccccc12)C(=O)N[C@@H](Cc1cnc[nH]1)C(=O)N[C@H](C(=O)N[C@@H](Cc1ccccc1)C(=O)NCC(=O)O)[C@@H](C)O)C(C)C`, with > 1000 nM. Then `CC(=O)N[C@H](C(=O)N[C@@H](CCC(N)=O)C(=O)N[C@H](C(=O)N[C@@H](Cc1c[nH]c2ccccc12)C(=O)N[C@@H](CCC(N)=O)C(=O)N[C@H](C(=O)N[C@@H](Cc1ccc(Cl)c(Cl)c1)C(=O)N[C@@H](Cc1ccc2ccccc2c1)C(=O)N[C@@](C)(CCCN)C(=O)N[C@@H](CCC(=O)O)C(=O)N[C@@H](CC(N)=O)C(=O)NCC(N)=O)C(C)(C)S)[C@@H](C)O)C(C)(C)S`, with 100 to 1000 nM; and `CC(=O)N[C@@H](CS)C(=O)N[C@@H](C)C(=O)N[C@@H](CC(=O)O)C(=O)N[C@@H](Cc1c[nH]c2ccccc12)C(=O)N[C@H](C(=O)N[C@@H](CS)C(=O)N[C@@H](Cc1ccc(O)cc1)C(=O)N[C@@H](Cc1c[nH]c2ccccc12)C(=O)N[C@@H](Cc1cnc[nH]1)C(=O)N[C@H](C(=O)N[C@@H](Cc1ccccc1)C(=O)NCC(=O)N[C@@H](C)C(=O)N[C@@H](C)C(=O)N[C@H](CCCCN)C(=O)O)[C@@H](C)O)C(C)C`, with < 500 nM.

In the case of `CC(=O)N[C@@H](CS)C(=O)N[C@@H](CCC(N)=O)C(=O)N[C@H](C(=O)N[C@@H](Cc1c[nH]c2ccccc12)C(=O)N[C@@H](CCC(N)=O)C(=O)N[C@@H](CS)C(=O)N[C@@H](Cc1ccc(O)cc1)C(=O)N[C@@H](Cc1c[nH]c2ccccc12)C(=O)N[C@H](CCCNC(=N)N)C(=O)N[C@H](CCC(=O)O)C(=O)N[C@@H](CC(N)=O)C(=O)NCC(=O)NCCOCC(=O)N[C@H](CCCCN)C(N)=O)[C@@H](C)O`, the IC50 was > 1000 nM. As for `CC(C)[C@H](NC(=O)[C@H](Cc1c[nH]c2ccccc12)NC(=O)[C@H](CC(=O)O)NC(=O)[C@H](C)NC(=O)[C@@H](N)CS)C(=O)N[C@@H](CS)C(=O)N[C@@H](Cc1ccc(O)cc1)C(=O)N[C@@H](Cc1c[nH]c2ccccc12)C(=O)N[C@@H](Cc1cnc[nH]1)C(=O)N[C@H](C(=O)N[C@@H](Cc1ccccc1)C(=O)NCC(=O)N[C@@H](CCCCN)C(=O)O)[C@@H](C)O`, the IC50 is > 1000 nM.

As usually defined, the IC50 is the concentration that inhibits the measured activity by half. Low values mean greater potency, high ones weaker potency.
